The record followed here is PMC9268102, “Design, Synthesis and Biological Evaluation of 1,3,5-Triazine Derivatives Targeting hA1 and hA3 Adenosine Receptor” (Molecules, 2022).

The target of one assay is T1, hA2B AR (Homo sapiens, UniProt P29275).
T1 construct: host or cells: HEK-A2B (HEK-293T-A2B) cell line
T1 sequence (P29275 1-332): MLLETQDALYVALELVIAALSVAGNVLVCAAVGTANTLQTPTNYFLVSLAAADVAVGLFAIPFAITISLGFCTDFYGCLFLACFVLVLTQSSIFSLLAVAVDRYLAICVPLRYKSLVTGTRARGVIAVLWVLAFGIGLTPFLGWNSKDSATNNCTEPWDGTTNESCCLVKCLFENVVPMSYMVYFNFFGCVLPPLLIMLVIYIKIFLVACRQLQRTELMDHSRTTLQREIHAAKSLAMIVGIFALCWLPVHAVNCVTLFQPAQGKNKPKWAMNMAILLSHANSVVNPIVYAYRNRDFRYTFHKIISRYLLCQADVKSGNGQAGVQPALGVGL
As to the kind of experiment: Radioligand competition binding assay at hA2B AR. The conditions noted are these: 10 μM compound; [3H]DPCPX; HEK-293 cells; read-out: Percentage Inhibition (%) at 10 μM, hA2B AR. How it is done: (§1) All the synthesized compounds were screened with radioligand binding assays at hARs. First, the percentage of inhibition was measured by treatment of each hAR subtype with 10 μM of each compound (Table 1).
hA2B AR competition binding experiments were carried out in a multiscreen GF/C 96-well plate. In each well was incubated 25 µg of membranes from Euroscreen HEK-A2B cell line and prepared in laboratory, 25 nM [^3H]-DPCPX (140 Ci/mmol, 1 mCi/mL, Perkin Elmer NET974001MC) and compounds studied according to standard protocol. Non-specific binding was determined in the presence of NECA 1000 µM (Sigma E2397). The reaction mixture (Vt: 250 µL/well) was incubated at 25°C for 30 min, 200 µL was transferred to GF/C 96-well plate (Millipore, Madrid, Spain), and pretreated with binding buffer (Tris-HCl 50 Mm, EDTA 1 mM, MgCl2 5 mM, Bacitracin […], adenosine deaminase 2 U/Ml, pH = 6.5). It was then filtered and washed four times with 250 μL wash buffer (Tris-HCl 50 mM, EDTA 1 mM, MgCl2 5 mM, pH = 6.5), before being measured in a microplate beta scintillation counter (MicrobetaTrilux, PerkinElmer, Madrid, Spain).
(In general: Loss of bound radioactivity is the signal in a displacement assay; it reports binding, not function.)

The next assay deals with T2, hA3 AR (Homo sapiens, UniProt P0DMS8).
T2 sequence (P0DMS8 1-318): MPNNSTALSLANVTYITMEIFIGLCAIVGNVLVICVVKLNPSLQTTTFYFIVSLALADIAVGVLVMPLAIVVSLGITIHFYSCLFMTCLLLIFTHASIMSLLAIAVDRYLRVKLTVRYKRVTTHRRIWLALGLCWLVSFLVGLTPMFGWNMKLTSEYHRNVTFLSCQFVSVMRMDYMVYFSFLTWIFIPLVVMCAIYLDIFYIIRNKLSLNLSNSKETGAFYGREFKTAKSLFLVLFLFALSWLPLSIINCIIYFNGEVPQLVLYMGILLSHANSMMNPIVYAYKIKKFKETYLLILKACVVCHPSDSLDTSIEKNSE
As to the kind of experiment: Radioligand competition binding assay at hA3 AR. The arrangement: expressed in transfected cells; host or cells: Hela-A3 cell line. The settings on record: for Percentage Inhibition (%) at 10 μM, hA3 AR / inhibition at 10 µM: 10 μM compound; for Percentage Inhibition (%) at 10 μM, hA3 AR / inhibition at 10 µM / Ki: [3H]NECA; for inhibition at 10 µM: read-out: Percentage Inhibition (%) at 10 μM, hA3 AR. How it is done:
as §1
(§2) hA1, hA2A, and hA3 AR competition binding experiments were carried out in a multiscreen GF/C 96-well plate (Millipore, Madrid, Spain) pretreated with binding buffer (Hepes 20 mM, NaCl 100 mM, MgCl2 10 mM, 2 U/mL adenosine deaminase, pH = 7.4 for hA1 AR; Tris-HCl 50 mM, EDTA 1 mM, MgCl2 10 mM, 2 U/mL adenosine deaminase, pH = 7.4 for hA2A AR; and Tris-HCl 50 mM, EDTA 1 mM, MgCl2 5 mM, 2 U/mL adenosine deaminase, pH = 7.4 for hA3 AR, respectively). In each well was incubated 5 µg of membranes from Euroscreen CHO-A1 cell line, 5µg of membranes from Hela-A2A cell line, or 30µg of membranes from Hela-A3 cell line and prepared in laboratory: 1 nM [^3H]-DPCPX (140 Ci/mmol, 1 mCi/Ml, Perkin Elmer NET974001MC) for hA1 AR; 1 nM [^3H]-ZM241385 (50 Ci/mmol, 1 mCi/mL, ARC-ITISA 0884) for hA2A AR; and 10 nM [^3H]-NECA (29.6 Ci/mmol, 1 mCi/mL, Perkin Elmer NET811250UC) for hA3 AR, respectively; and the compounds studied according to standard protocol. Non-specific binding was determined in the presence of R-PIA 10 µM (Sigma P4532) for hA1 AR; of NECA 50 µM (Sigma E2387) for hA2A AR; and of R-PIA 100 µM (Sigma P4532) for hA3 AR, respectively. The reaction mixture (Vt: 200 µL/well) was incubated at 25 °C for 60 min (hA1 AR), 30min (hA2A AR), or 180min (hA3 AR); whereafter it was filtered and washed four times (hA1 and hA2A AR) or six times (hA3 AR) with 250 μL wash buffer (Hepes 20 mM, NaCl 100 mM, MgCl2 10 mM pH = 7.4, for hA1 AR; Tris-HCl 50 mM, EDTA 1 mM, MgCl2 10 mM, pH = 7.4, for hA2A AR; and Tris-HCl 50mM pH = 7.4, for hA3 AR, respectively) before being measured in a microplate beta scintillation counter (MicrobetaTrilux, PerkinElmer, Madrid, Spain).

The next assay has as its target T3, hA2A AR (Homo sapiens, UniProt P29274).
T3 construct: expressed in transfected cells; host or cells: Hela-A2A cell line
As to the kind of experiment: Radioligand competition binding assay at hA2A AR. The conditions noted are these: 10 μM compound, [3H]ZM241385, Hela cells; for inhibition at 10 µM: read-out: Percentage Inhibition (%) at 10 μM, hA2A AR. How it is done:
as §1, §2

The target in a further assay is T4, hA1 AR (Homo sapiens, UniProt P30542).
T4 construct: host or cells: CHO-A1 (CHO cells expressing hA1 AR)
T4 sequence (P30542 1-326): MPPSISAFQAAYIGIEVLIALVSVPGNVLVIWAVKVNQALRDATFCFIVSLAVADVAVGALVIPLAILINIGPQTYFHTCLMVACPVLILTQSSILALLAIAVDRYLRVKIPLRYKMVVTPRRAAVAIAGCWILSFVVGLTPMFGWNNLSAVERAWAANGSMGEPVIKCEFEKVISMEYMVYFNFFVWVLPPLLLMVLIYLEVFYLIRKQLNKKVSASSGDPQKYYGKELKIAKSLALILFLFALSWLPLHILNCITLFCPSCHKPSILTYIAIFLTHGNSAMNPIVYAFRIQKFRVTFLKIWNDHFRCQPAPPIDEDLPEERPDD
As to the kind of experiment: Radioligand competition binding assay at hA1 AR. The conditions noted are these: for Percentage Inhibition (%) at 10 μM, hA1 AR / inhibition at 10 µM: 10 μM compound; for Percentage Inhibition (%) at 10 μM, hA1 AR / inhibition at 10 µM / Ki: [3H]DPCPX, CHO cells; for inhibition at 10 µM: read-out: Percentage Inhibition (%) at 10 μM, hA1 AR; for Selectivity (hA1 AR:hA3 AR): ratio of Ki hA1 AR to Ki hA3 AR. How it is done: as §1, §2

Setting [1] is: compared with hydroxyl compound 9a.

Where “and” joins values, the source holds several entries; their conditions need not be identical. Equal values may be shown once. Bounds are passed on as bounds.

T3 sequence (P29274 whole entry): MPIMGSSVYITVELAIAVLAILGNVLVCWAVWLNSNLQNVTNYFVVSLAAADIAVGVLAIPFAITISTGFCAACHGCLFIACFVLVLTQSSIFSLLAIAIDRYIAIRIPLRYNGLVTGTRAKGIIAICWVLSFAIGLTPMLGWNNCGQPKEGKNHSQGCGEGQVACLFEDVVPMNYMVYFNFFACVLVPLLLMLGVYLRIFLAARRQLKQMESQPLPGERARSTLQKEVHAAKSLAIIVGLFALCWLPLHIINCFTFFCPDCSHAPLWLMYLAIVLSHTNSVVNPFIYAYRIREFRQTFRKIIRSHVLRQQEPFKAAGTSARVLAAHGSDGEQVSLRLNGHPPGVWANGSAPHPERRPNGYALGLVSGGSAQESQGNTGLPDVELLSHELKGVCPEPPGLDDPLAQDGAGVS

In the case of `COc1ccc(-c2nc(N)nc(Nc3ccc(OC)c(F)c3)n2)cc1` [Compound 11a, N^2-(3-fluoro-4-methoxyphenyl)-6-(4-methoxyphenyl)-1,3,5-triazine-2,4-diamine], the inhibition (in general, the share of the control response that was lost under treatment) at 10 µM on hA2B AR was 65 ± 2%. For the same compound, on hA3 AR, the “Percentage Inhibition (%) at 10 μM, hA3 AR” value turned out to be 97 ± 1%; the inhibition at 10 µM was above 90%; the affinity corresponds to a Ki of 13.3 nM. For the same compound, the “Improvement of binding affinity at hA3 AR” value at hA3 AR (setting [1]) is around 5 fold. Moreover, the inhibition at 10 µM on hA2A AR was determined as 83 ± 1%. Further, at hA1 AR, the “Percentage Inhibition (%) at 10 μM, hA1 AR” value is reported as 95 ± 1%; the inhibition at 10 µM is above 90%; affinity was put at a Ki of 78.1 nM; the “Selectivity (hA1 AR:hA3 AR)” value was found to be 5.87. Besides, the “Improvement of binding affinity at hA1 AR” value at hA1 AR (setting [1]) was “about 2 fold”.

Regarding `COc1cc(Nc2nc(N)nc(-c3ccc(O)cc3)n2)ccc1Cl` [Compound 9c, 4-{4-amino-6-[(4-chloro-3-methoxyphenyl)amino]-1,3,5-triazin-2-yl}phenol], the inhibition at 10 µM at hA2B AR was 90 ± 1%. Besides, at hA3 AR, the “Percentage Inhibition (%) at 10 μM, hA3 AR” value came to 95 ± 1%; the inhibition at 10 µM is above 95%; the Ki (as a rule, a dissociation constant, usually derived from enzyme kinetics or from competition with a known ligand) turned out to be 661 nM. The “Percentage Inhibition (%) at 10 μM, hA2A AR” value on hA2A AR (10 µM) worked out at 94 ± 3%. Further, the inhibition at 10 µM on hA2A AR was above 95%. At hA1 AR, the “Percentage Inhibition (%) at 10 μM, hA1 AR” value is recorded as 99 ± 1%; the inhibition at 10 µM was above 95%; the affinity, expressed as Ki, was 57.9 nM; the “Selectivity (hA1 AR:hA3 AR)” value is listed as 0.0875.

Consider `COc1ccc(Nc2nc(N)nc(-c3ccc(F)cc3)n2)cc1F` [Compound 11b, N^2-(3-fluoro-4-methoxyphenyl)-6-(4-fluorophenyl)-1,3,5-triazine-2,4-diamine], for which, at hA2B AR, the inhibition at 10 µM was determined as 56 ± 1%. Besides, at hA3 AR, the “Percentage Inhibition (%) at 10 μM, hA3 AR” value turned out to be 95 ± 4%; the inhibition at 10 µM is above 90%; the Ki came out at 56.6 nM. Moreover, the inhibition at 10 µM on hA2A AR came out at 49 ± 1%. On hA1 AR, the “Percentage Inhibition (%) at 10 μM, hA1 AR” value is recorded as 98 ± 1%; the inhibition at 10 µM is above 90%; affinity was put at a Ki of 98.3 nM; the “Selectivity (hA1 AR:hA3 AR)” value was 1.7 and 1.74.
